Consider 27 compounds from US4107165A, “Tris[tetrahydroisoquinoline] compounds” (Endo Laboratories, priority 1976, dated 1978).

In brackets after ≈: the same amount, converted by molar mass. Structures can show the parent of a compound that is named as a salt.

The first data set concerns fibrinolytic activity.
Experiment: not given
The settings on record: prior art; cited from earlier work.
With `CCN(CC)CCOC(=O)c1ccc(N)cc1` [procaine], the “fibrinolytic activity in vivo” value is recorded as “Fibrinolytic activity in vivo can be induced”.

As to `O=C(O)c1cccnc1` [nicotinic acid], the “fibrinolytic activity in vivo” value was “Fibrinolytic activity in vivo can be induced”.

In the case of `CNC[C@H](O)c1ccc(O)c(O)c1` [epinephrine], the “fibrinolytic activity in vivo” value is “Fibrinolytic activity in vivo can be induced”.

Turning to `NCCc1c[nH]cn1` [histamine], the “fibrinolytic activity in vivo” value is recorded as “Fibrinolytic activity in vivo can be induced”.

In the case of `CCCCC1C(=O)N(c2ccccc2)N(c2ccccc2)C1=O` [phenylbutazone], the “fibrinolytic activity in vivo” value is “Fibrinolytic activity in vivo can be induced”.

On to `NCCc1c[nH]c2ccc(O)cc12` [serotonin], for which the “fibrinolytic activity in vivo” value was “Fibrinolytic activity in vivo can be induced”.

System in the next data set: not given
Experiment: not given
The note with it: prior art; cited from earlier work.
On to “Streptokinase: a streptococcal protein, has been used for thrombolysis”, for which the “side effects in thrombolysis” value was “side effects of pyrogenicity and anaphylactic reactions”.

The next data set deals with ADP-induced platelet aggregation and experimental thrombosis.
Experiment: not given
The settings on record: literature; cited from earlier work.
`OCCN(CCO)c1nc(N2CCCCC2)c2nc(N(CCO)CCO)nc(N3CCCCC3)c2n1` [dipyridamole, 2,2',2",2'"-[(4,8-dipiperidinopyrimido[5,4-d]pyrimidine-2,6-diyl)dinitrilo]tetraethanol, reference compound]: the “effect against ADP-induced platelet aggregation and experimental thrombosis” value is “generally recognized as being effective against ADP-induced platelet aggregation and experimental thrombosis”.

For another data set, the system named is ADP-induced platelet aggregation. Description: inhibition of ADP-induced platelet aggregation in platelet rich plasma. In kind it is cell-based. The settings on record: 5 min; human platelet rich plasma, 37° C, five minutes incubation prior to ADP; read-out: ED50 (amount which reduces platelet aggregation by 50%). As to the method: Another selection of representative compounds within the scope of the present invention, including some listed in the previous table, have been tested for their ability to inhibit platelet aggregation. Citrated whole blood from human volunteers, who had not taken any medicine for the previous week, was centrifuged to obtain platelet rich plasma. On addition of ADP (adenosine diphosphate) to this platelet rich plasma, incubated at 37° C with constant stirring, in an aggregometer, optical density changes can be observed which are caused by platelet aggregation. Thus, the extent of ADP-induced platelet aggregation is determined for each sample of blood used. Compounds to be tested were incubated for five minutes prior to the addition of ADP. The ED50 of a compound is that amount, in γ/ml, which reduces platelet aggregation by 50% under the above conditions.
As for `COc1cc2c(cc1OC)C(CCCCC(CCCCC(CCCCC1=NCCc3cc(OC)c(OC)cc31)C1=NCCc3cc(OC)c(OC)cc31)C1=NCCc3cc(OC)c(OC)cc31)=NCC2.Cl.Cl.Cl.Cl.O.O.O.O` (centres unmarked) [Example 15.1a, 1,1',1",1'"-(1,5,10,14-tetradecanetetrayl)tetrakis[3,4-dihydro-6,7-dimethoxyisoquinoline] tetrahydrochloride tetrahydrate], the IC50 stood at 27 mg/L.

As for `COc1cc2c(cc1OC)C(CCOCC(COCCC1=NCCc3cc(OC)c(OC)cc31)OCCC1=NCCc3cc(OC)c(OC)cc31)=NCC2` [Example 17.1a, 1,1',1"-[1,2,3-propanetriyltri(oxyethylene)]tris[3,4-dihydro-6,7-dimethoxyisoquinoline]], the IC50 is less than 40 mg/L.

Consider `COc1cc2c(cc1OC)C(CCCC(CCCC1=NCCc3cc(OC)c(OC)cc31)C1=NCCc3cc(OC)c(OC)cc31)=NCC2` [Example 19.1a, 1,1',1"-(1,4,7-heptanetriyl)tris[3,4-dihydro-6,7-dimethoxyisoquinoline]], for which the IC50 is less than 40 mg/L.

Consider `COc1cc2c(cc1OC)C(CCCCC(CCC1=NCCc3cc(OC)c(OC)cc31)CCC1=NCCc3cc(OC)c(OC)cc31)=NCC2.Cl.Cl.Cl.O.O.O` [Example 1.1a, 1,1'-{3-[2-(3,4-dihydro-6,7-dimethoxy-1-isoquinolinyl)ethyl]heptamethylene}bis[3,4-dihydro-6,7-dimethoxyisoquinoline] trihydrochloride trihydrate], for which the IC50 was less than 40 mg/L.

As to `COc1cc2c(cc1OC)C(CCC(CCC1=NCCc3cc(OC)c(OC)cc31)(CCC1=NCCc3cc(OC)c(OC)cc31)[N+](=O)[O-])=NCC2.Cl.Cl.Cl` [Example 18.1a, 1,1'-{3-[2-(3,4-dihydro-6,7-dimethoxy-1-isoquinolinyl)ethyl] -3-nitropentamethylene}bis[3,4-dihydro-6,7-dimethoxyisoquinoline] trihydrochloride], the IC50 worked out at 6 mg/L.

Regarding `COc1cc2c(cc1OC)C(CCC(CCC1=NCCc3cc(OC)c(OC)cc31)CCC(CC1=NCCc3cc(OC)c(OC)cc31)c1ccccc1)=NCC2.Cl.Cl.Cl.O.O.O` (centres unmarked) [Example 7.1a, 1,1'-{5-[2-(3,4-dihydro-6,7-dimethoxy-1-isoquinolinyl)ethyl]-2-phenylheptamethylene}bis[3,4-dihydro-6,7-dimethoxyisoquinoline] trihydrochloride trihydrate], the IC50 was less than 40 mg/L.

For `COc1cc2c(cc1OC)C(CCC(CCC1NCCc3cc(OC)c(OC)cc31)(CCC1NCCc3cc(OC)c(OC)cc31)[N+](=O)[O-])NCC2` (centres unmarked) [Example 18.1, 1,1'-{3-nitro-3-[2-(1,2,3,4-tetrahydro-6,7-dimethoxy-1-isoquinolinyl)ethyl]pentamethylene}bis[1,2,3,4-tetrahydro-6,7-dimethoxyisoquinoline]], the IC50 was 9 mg/L (≈ 12.5 µM).

Regarding `OCCN(CCO)c1nc(N2CCCCC2)c2nc(N(CCO)CCO)nc(N3CCCCC3)c2n1` [dipyridamole, 2,2',2",2'"-[(4,8-dipiperidinopyrimido[5,4-d]pyrimidine-2,6-diyl)dinitrilo]tetraethanol, reference compound], the IC50 amounted to 270 mg/L (≈ 535 µM).

The test system of the next data set is whole blood clot. Kind of data set: whole blood clot lysis method (fibrinolytic activity), blood from rats given compound intraperitoneally. In kind it is in vivo. The settings on record: Rattus norvegicus, ip, 4 h, intraperitoneal, blood diluted 1:10, clotted with thrombin, 37° C, four hours, read-out: ED50 (dose which causes lysis of 50% of the clot). As to the method:
Certain representative compounds within the scope of the present invention have been tested for fibrinolytic activity by the whole blood clot lysis method, as modified from the procedure of Billimoria et al.^1 In this method, blood from rats given a fibrinolytic compound intraperitoneally is taken and diluted 1:10. A standard amount is clotted with thrombin, incubated at 37° C for four hours, and the amount of clot that has lysed is determined. […] These ED50 values for the various compounds tested are set forth in the following table, each of the compounds being identified by name and by the number of the ensuing example in which its synthesis is described. […] ^1 Billimoria, […]., James, […]., Lancet II, 471 (1959)
As to `COc1cc2c(cc1OC)C(CCCC(CCCC(CCCC1NCCc3cc(OC)c(OC)cc31)C1NCCc3cc(OC)c(OC)cc31)C1NCCc3cc(OC)c(OC)cc31)NCC2.Cl.Cl.Cl.Cl.O.O.O.O` (centres unmarked) [Example 2.1, 1,1',1",1'"-(1,4,8,11-Undecanetetrayl)tetrakis[1,2,3,4-tetrahydro-6,7-dimethoxyisoquinoline] tetrahydrochloride tetrahydrate], the median effective dose (ED50) turned out to be 0.03 mg/kg.

`COc1cc2c(cc1OC)C(CCCC(CCCC1NCCc3cc(OC)c(OC)cc31)C1NCCc3cc(OC)c(OC)cc31)NCC2.Cl.Cl.Cl.O.O.O` (centres unmarked) [Example 19.1, 1,1',1"-(1,4,7-HEPTANETRIYL)TRIS[1,2,3,4-TETRAHYDRO-6,7-DIMETHOXYISOQUINOLINE] TRIHYDROCHLORIDE TRIHYDRATE]: the ED50 worked out at 0.03 mg/kg.

Consider `COc1cc2c(cc1OC)[C@H](CCCC[C@H]1NCCc3cc(OC)c(OC)cc31)NCC2` [bisobrin dihydrochloride, 1,1'-tetramethylenebis[1,2,3,4-tetrahydro-6,7-dimethoxyisoquinoline], reference compound], for which the ED50 was determined as 0.5 mg/kg.

In the case of `COc1cc2c(cc1OC)C(CCC(CCC(CC1NCCc3cc(OC)c(OC)cc31)c1ccccc1)CCC1NCCc3cc(OC)c(OC)cc31)NCC2` (centres unmarked) [Example 7.1, 1,1'-{2-phenyl-5-[2-(1,2,3,4-tetrahydro-6,7-dimethoxy-1-isoquinolinyl)ethyl]heptamethylene}bis[1,2,3,4-tetrahydro-6,7-dimethoxyisoquinoline]], the ED50 was less than 0.1 mg/kg.

Turning to `COc1cc2c(cc1OC)C(CCCC(CCCCC(CCCC1NCCc3cc(OC)c(OC)cc31)C1NCCc3cc(OC)c(OC)cc31)C1NCCc3cc(OC)c(OC)cc31)NCC2` (centres unmarked) [Example 16.1, 1,1',1",1'"-(1,4,9,12-dodecanetetrayl)tetrakis[1,2,3,4-tetrahydro-6,7-dimethoxyisoquinoline]], the ED50 is 0.03 mg/kg.

For `COc1cc2c(cc1OC)C(CCCCC(SCC1NCCc3cc(OC)c(OC)cc31)C1NCCc3cc(OC)c(OC)cc31)NCC2` (centres unmarked) [Example 6.1, 1,1'-[1-[(1,2,3,4-tetrahydro-6,7-dimethoxy-1-isoquinolinylmethyl)thio]pentamethylene]bis[1,2,3,4-tetrahydro-6,7-dimethoxyisoquinoline]], the ED50 is less than 0.6 mg/kg.

With `COc1cc2c(cc1OC)C(CCOCC(COCCC1NCCc3cc(OC)c(OC)cc31)OCCC1NCCc3cc(OC)c(OC)cc31)NCC2.Cl.Cl.Cl` (centres unmarked) [Example 17.1, 1,1',1"-[1,2,3-PROPANETRIYLTRI-(OXYETHYLENE)]TRIS[1,2,3,4-TETRAHYDRO-6,7-DIMETHOXYISOQUINOLINE] TRIHYDROCHLORIDE], the ED50 turned out to be 0.8 mg/kg.

For `COc1cc2c(cc1OC)C(CCN(CCC1NCCc3cc(OC)c(OC)cc31)CCC1NCCc3cc(OC)c(OC)cc31)NCC2` (centres unmarked) [Example 17.3, 1,1',1"-(nitrilotriethylene)tris[1,2,3,4-tetrahydro-6,7-dimethoxyisoquinoline]], the ED50 turned out to be 0.7 mg/kg.

For the compound `COc1cc2c(cc1OC)C(CCC(CCC1NCCc3cc(OC)c(OC)cc31)CCC(C)(C)CC1NCCc3cc(OC)c(OC)cc31)NCC2` (centres unmarked) [Example 8.1, 1,1'-{2,2-dimethyl-5-[2-(1,2,3,4-tetrahydro-6,7-dimethoxy-1-isoquinolinyl)ethyl]heptamethylene}bis[1,2,3,4-tetrahydro-6,7-dimethoxyisoquinoline]], the ED50 is less than 0.4 mg/kg.

`COc1ccc2c(c1)CCNC2CCCCC(CCC1NCCc2cc(OC)ccc21)CCC1NCCc2cc(OC)ccc21` (centres unmarked) [Example 10.1, 1,1'-{3-[2-(1,2,3,4-tetrahydro-6-methoxy-1-isoquinolinyl)ethyl]heptamethylene}bis[1,2,3,4-tetrahydro-6-methoxyisoquinoline]]: the ED50 stood at 0.5 mg/kg.

In the case of `COc1cc2c(cc1OC)C(CCCCC(CCCCC(CCCCC1NCCc3cc(OC)c(OC)cc31)C1NCCc3cc(OC)c(OC)cc31)C1NCCc3cc(OC)c(OC)cc31)NCC2` (centres unmarked) [Example 15.1, 1,1',1",1'"-(1,5,10,14-tetradecanetetrayl)tetrakis[1,2,3,4-tetrahydro-6,7-dimethoxyisoquinoline]], the 50% effective dose (ED50) stood at 0.04 mg/kg.

`COc1cc2c(cc1OC)C(CCC(CCC1NCCc3cc(OC)c(OC)cc31)(CCC1NCCc3cc(OC)c(OC)cc31)[N+](=O)[O-])NCC2` (centres unmarked) [Example 18.1, 1,1'-{3-nitro-3-[2-(1,2,3,4-tetrahydro-6,7-dimethoxy-1-isoquinolinyl)ethyl]pentamethylene}bis[1,2,3,4-tetrahydro-6,7-dimethoxyisoquinoline]]: the ED50 is less than 0.6 mg/kg.

For `COc1cc2c(cc1OC)C(CCC(CCC(CCC1NCCc3cc(OC)c(OC)cc31)CCC1NCCc3cc(OC)c(OC)cc31)CCC1NCCc3cc(OC)c(OC)cc31)NCC2.Cl.Cl.Cl.Cl.O.O.O.O` (centres unmarked) [Example 5.1, 1,1'-{3,6-bis[2-(1,2,3,4-tetrahydro-6,7-dimethoxy-1-isoquinolinyl)ethyl]-octamethylene}bis[1,2,3,4-tetrahydro-6,7-dimethoxyisoquinoline] tetrahydrochloride tetrahydrate], the ED50 turned out to be 0.06 mg/kg.

What is called ED50 is the dose that gives a 50% effect, or the effect in half of the subjects.
